ChEMBL document CHEMBL1127953, “Substituent effects of benzopyran-4-(N-cyano)-carboxamidine potassium channel openers for selectivity to guinea pig trachealis” (Bioorg Med Chem Lett, 1994)

Key:
Format in all cases: functional
Cavia porcellus [1] = organism: Cavia porcellus; experiment: Maximum relaxation achieved compared to maximum relaxation to aminophylline (mM) in guinea pig trachaelis
Rattus norvegicus [2] = organism: Rattus norvegicus; experiment: Maximum reduction of 30 mM KCl- induced contraction in rat aorta
Cavia porcellus [3] = organism: Cavia porcellus; experiment: Inhibition of spontaneous tone in guinea pig trachaelis
Rattus norvegicus [4] = organism: Rattus norvegicus; experiment: […] activity in rat aorta precontracted with 30 mM KCl

Row | Compound | Intrinsic activity (Cavia porcellus [1]) [%] | Intrinsic activity (Rattus norvegicus [2]) [%] | EC50 (Cavia porcellus [3]) [µM] | EC50 (Rattus norvegicus [4]) [µM]
1 | CN(C)/C(=C\[N+](=O)[O-])C1=CC(C)(C)Oc2ccc([N+](=O)[O-])cc21 | 84.8 | 83.1 | 1.12 | 6.46
2 | CN(C)/C(=N\C#N)C1=CC(C)(C)Oc2ccc(C(F)(F)F)cc21 | 74.1 | 75.2 | 0.178 | 12.6
3 | CN(C)/C(=N\C#N)C1=CC(C)(C)Oc2ccc(S(=O)(=O)c3ccccc3)cc21 | 91.1 | 73.8 | 3.63 | 3.31
4 | CN(C)/C(=N\C#N)C1=CC(C)(C)Oc2ccc([N+](=O)[O-])cc21 | 90.6 |  | 0.0513 | > 31.6
5 | CN(C)/C(=N\C#N)C1=CC(C)(C)Oc2ccc(Br)cc21 |  |  | > 31.6 | > 31.6
6 | CN(C)/C(=N\C#N)C1=CC(C)(C)Oc2ccc(Cl)cc21 |  |  | > 31.6 | > 31.6
7 | COc1ccc2c(c1)C(/C(=N/C#N)N(C)C)=CC(C)(C)O2 |  |  | > 31.6 | > 31.6
8 | CN(C)C(=O)C1=CC(C)(C)Oc2ccc([N+](=O)[O-])cc21 | 78.3 | 79.9 | 0.398 | 0.129
9 | CN(C)C(=S)C1=CC(C)(C)Oc2ccc([N+](=O)[O-])cc21 | 77.4 | 71.5 | 0.49 | 0.955
10 | CN(C)/C(=N\S(N)(=O)=O)C1=CC(C)(C)Oc2ccc([N+](=O)[O-])cc21 |  |  | > 31.6 | > 31.6
11 | CC1(C)Oc2ccc(C#N)cc2[C@@H](N2CCCC2=O)[C@H]1O [CROMAKALIM] | 85.1 | 74.7 | 0.851 | 
12 | CN(C)/C(=N\C#N)C1=CC(C)(C)Oc2ccc(C#N)cc21 | 85.6 | 73.7 | 2.14 | 5.01
13 | CC(N/C(=N\C#N)Nc1ccncc1)C(C)(C)C (centres undefined) [PINACIDIL ANHYDROUS] | 97.3 | 91.9 | 1.58 | 
14 | CN(C)/C(=N/C#N)C1=CC(C)(C)Oc2ccc(OC(F)(F)F)cc21 | 56.1 |  | 0.407 | > 10
15 | CN(C)/C(=N\C#N)C1=CC(C)(C)Oc2ccc(S(C)(=O)=O)cc21 |  |  | > 31.6 | > 31.6
16 | CNC(=O)C1=CC(C)(C)Oc2ccc([N+](=O)[O-])cc21 | 89.6 | 61 | 0.0331 | 0.0107
17 | CN(C)/C(=N\C#N)C1=CC(C)(C)Oc2ccccc21 |  |  | > 31.6 | > 31.6
18 | CN(C)/C(=N\C(N)=O)C1=CC(C)(C)Oc2ccc([N+](=O)[O-])cc21 |  |  | > 31.6 | > 31.6
